# Results taken from patent publication US11813285B2, “Stable pharmaceutical composition comprising esomeprazole and sodium bicarbonate” (CHONG KUN DANG PHARMACEUTICAL CORP., priority 2018, dated 2023).
# Where two headings read alike, the source gives them in different places.
# How the values were obtained:
# [1] = Stability test of esomeprazole and omeprazole according to pH; format: physicochemical; details: in % (unit assumed)
# Procedure: <Analysis method> A) Detector: UV-Visible spectrophotometer (measurement wavelength:280 nm) B) Column: Inertsil C8-3 (4.6×150 mm, 5 μm) or equivalent column C) Injection amount: 20 μl D) Flow rate: 1.5 mL/min E) Column temperature: Constant temperature near 40° C. F) Sample temperature: Constant temperature near 10° C. […] H) Mobile phase: […] The buffer solution at pH 7.6 was prepared as follows: 0.725 g of sodium dihydrogen phosphate monohydrate (NaH2PO4.H2O) and 4.472 g of anhydrous disodium hydrogen phosphate (Na2HPO4) were weighed to be put in an 1 L volumetric flask and dissolved in purified water, followed by filling the flask with purified water up to the calibration mark. 250 mL of the liquid was taken to be put in an 1 L volumetric flask, followed by filling the flask with purified water up to the calibration mark and adjusting the pH to 7.6 with phosphoric acid.
# [2] = for pH of simulated gastric juice: 200 mL simulated gastric juice + 200 mL purified water, 37° C.
# Procedure: A pH was measured according to the change of the dose of sodium bicarbonate in a solution (37° C.) where 200 mL of purified water was put in 200 mL of simulated gastric juice.
smiles,measurement,setting,value
"COc1ccc2[nH]c([S+]([O-])Cc3ncc(C)c(OC)c3C)nc2c1 (centres unmarked) [Omeprazole, 5-methoxy-2-[(4-methoxy-3,5-dimethyl-2-pyridinyl)methyl]sulfinyl-1H-benzimidazol]",assay of esomeprazole and omeprazole according to pH,"[1]; buffer pH 4.0, 5 min",57.2
same,assay of esomeprazole and omeprazole according to pH,"[1]; buffer pH 4.0, 10 min",29.4
same,assay of esomeprazole and omeprazole according to pH,"[1]; buffer pH 4.0, 15 min",15.3
same,assay of esomeprazole and omeprazole according to pH,"[1]; buffer pH 4.0, 30 min",6.7
same,assay of esomeprazole and omeprazole according to pH,"[1]; buffer pH 4.0, 45 min",1.6
same,assay of esomeprazole and omeprazole according to pH,"[1]; buffer pH 4.0, 60 min",0.8
same,assay of esomeprazole and omeprazole according to pH,"[1]; buffer pH 4.0, 120 min",0.1
same,assay of esomeprazole and omeprazole according to pH,"[1]; buffer pH 6.0, 5 min",74.9
same,assay of esomeprazole and omeprazole according to pH,"[1]; buffer pH 6.0, 10 min",74.2
same,assay of esomeprazole and omeprazole according to pH,"[1]; buffer pH 6.0, 15 min",71.7
same,assay of esomeprazole and omeprazole according to pH,"[1]; buffer pH 6.0, 30 min",69.6
same,assay of esomeprazole and omeprazole according to pH,"[1]; buffer pH 6.0, 45 min",65.4
same,assay of esomeprazole and omeprazole according to pH,"[1]; buffer pH 6.0, 60 min",64.1
same,assay of esomeprazole and omeprazole according to pH,"[1]; buffer pH 6.0, 120 min",55.1
same,assay of esomeprazole and omeprazole according to pH,"[1]; buffer pH 6.8, 5 min",91.5
same,assay of esomeprazole and omeprazole according to pH,"[1]; buffer pH 6.8, 10 min",90.5
same,assay of esomeprazole and omeprazole according to pH,"[1]; buffer pH 6.8, 15 min",89.9
same,assay of esomeprazole and omeprazole according to pH,"[1]; buffer pH 6.8, 30 min",89.8
same,assay of esomeprazole and omeprazole according to pH,"[1]; buffer pH 6.8, 45 min",88.8
same,assay of esomeprazole and omeprazole according to pH,"[1]; buffer pH 6.8, 60 min",88.3
same,assay of esomeprazole and omeprazole according to pH,"[1]; buffer pH 6.8, 120 min",85.5
same,assay of esomeprazole and omeprazole according to pH,"[1]; buffer pH 7.0, 5 min",100.5
same,assay of esomeprazole and omeprazole according to pH,"[1]; buffer pH 7.0, 10 min",99.0
same,assay of esomeprazole and omeprazole according to pH,"[1]; buffer pH 7.0, 15 min",98.9
same,assay of esomeprazole and omeprazole according to pH,"[1]; buffer pH 7.0, 30 min",98.2
same,assay of esomeprazole and omeprazole according to pH,"[1]; buffer pH 7.0, 45 min",97.9
same,assay of esomeprazole and omeprazole according to pH,"[1]; buffer pH 7.0, 60 min",97.5
same,assay of esomeprazole and omeprazole according to pH,"[1]; buffer pH 7.0, 120 min",95.8
same,assay of esomeprazole and omeprazole according to pH,"[1]; buffer pH 7.3, 5 min",99.8
same,assay of esomeprazole and omeprazole according to pH,"[1]; buffer pH 7.3, 10 min",100.0
same,assay of esomeprazole and omeprazole according to pH,"[1]; buffer pH 7.3, 15 min",99.9
same,assay of esomeprazole and omeprazole according to pH,"[1]; buffer pH 7.3, 30 min",99.8
same,assay of esomeprazole and omeprazole according to pH,"[1]; buffer pH 7.3, 45 min",99.8
same,assay of esomeprazole and omeprazole according to pH,"[1]; buffer pH 7.3, 60 min",99.8
same,assay of esomeprazole and omeprazole according to pH,"[1]; buffer pH 7.3, 120 min",99.86
same,assay of esomeprazole and omeprazole according to pH,"[1]; buffer pH 7.5, 5 min",100.5
same,assay of esomeprazole and omeprazole according to pH,"[1]; buffer pH 7.5, 10 min",99.7
same,assay of esomeprazole and omeprazole according to pH,"[1]; buffer pH 7.5, 15 min",99.7
same,assay of esomeprazole and omeprazole according to pH,"[1]; buffer pH 7.5, 30 min",99.4
same,assay of esomeprazole and omeprazole according to pH,"[1]; buffer pH 7.5, 45 min",99.2
same,assay of esomeprazole and omeprazole according to pH,"[1]; buffer pH 7.5, 60 min",98.9
same,assay of esomeprazole and omeprazole according to pH,"[1]; buffer pH 7.5, 120 min",98.2
same,assay of esomeprazole and omeprazole according to pH,"[1]; buffer pH 8.0, 15 min",99.7
same,assay of esomeprazole and omeprazole according to pH,"[1]; buffer pH 8.0, 30 min",99.6
same,assay of esomeprazole and omeprazole according to pH,"[1]; buffer pH 8.0, 45 min",99.5
same,assay of esomeprazole and omeprazole according to pH,"[1]; buffer pH 8.0, 60 min",99.5
same,assay of esomeprazole and omeprazole according to pH,"[1]; buffer pH 8.0, 120 min",98.6
"COc1ccc2[nH]c([S@@+]([O-])Cc3ncc(C)c(OC)c3C)nc2c1 [S-omeprazole, (S)-5-methoxy-2-[(4-methoxy-3,5-dimethyl-2-pyridinyl)-methyl]sulfinyl-1H-benzimidazol]",assay of esomeprazole and omeprazole according to pH,"[1]; buffer pH 4.0, 5 min",64.1
same,assay of esomeprazole and omeprazole according to pH,"[1]; buffer pH 4.0, 10 min",31.0
same,assay of esomeprazole and omeprazole according to pH,"[1]; buffer pH 4.0, 15 min",15.9
same,assay of esomeprazole and omeprazole according to pH,"[1]; buffer pH 4.0, 30 min",6.9
same,assay of esomeprazole and omeprazole according to pH,"[1]; buffer pH 4.0, 45 min",1.7
same,assay of esomeprazole and omeprazole according to pH,"[1]; buffer pH 4.0, 60 min",0.9
same,assay of esomeprazole and omeprazole according to pH,"[1]; buffer pH 4.0, 120 min",0.1
same,assay of esomeprazole and omeprazole according to pH,"[1]; buffer pH 6.0, 5 min",74.4
same,assay of esomeprazole and omeprazole according to pH,"[1]; buffer pH 6.0, 10 min",72.8
same,assay of esomeprazole and omeprazole according to pH,"[1]; buffer pH 6.0, 15 min",71.0
same,assay of esomeprazole and omeprazole according to pH,"[1]; buffer pH 6.0, 30 min",68.9
same,assay of esomeprazole and omeprazole according to pH,"[1]; buffer pH 6.0, 45 min",66.3
same,assay of esomeprazole and omeprazole according to pH,"[1]; buffer pH 6.0, 60 min",63.6
same,assay of esomeprazole and omeprazole according to pH,"[1]; buffer pH 6.0, 120 min",54.9
same,assay of esomeprazole and omeprazole according to pH,"[1]; buffer pH 6.8, 5 min",95.6
same,assay of esomeprazole and omeprazole according to pH,"[1]; buffer pH 6.8, 10 min",90.8
same,assay of esomeprazole and omeprazole according to pH,"[1]; buffer pH 6.8, 15 min",90.5
same,assay of esomeprazole and omeprazole according to pH,"[1]; buffer pH 6.8, 30 min",89.7
same,assay of esomeprazole and omeprazole according to pH,"[1]; buffer pH 6.8, 45 min",88.9
same,assay of esomeprazole and omeprazole according to pH,"[1]; buffer pH 6.8, 60 min",88.3
same,assay of esomeprazole and omeprazole according to pH,"[1]; buffer pH 6.8, 120 min",86.2
same,assay of esomeprazole and omeprazole according to pH,"[1]; buffer pH 7.0, 5 min",99.6
same,assay of esomeprazole and omeprazole according to pH,"[1]; buffer pH 7.0, 10 min",99.0
same,assay of esomeprazole and omeprazole according to pH,"[1]; buffer pH 7.0, 15 min",99.3
same,assay of esomeprazole and omeprazole according to pH,"[1]; buffer pH 7.0, 30 min",98.9
same,assay of esomeprazole and omeprazole according to pH,"[1]; buffer pH 7.0, 45 min",98.7
same,assay of esomeprazole and omeprazole according to pH,"[1]; buffer pH 7.0, 60 min",98.1
same,assay of esomeprazole and omeprazole according to pH,"[1]; buffer pH 7.0, 120 min",96.8
same,assay of esomeprazole and omeprazole according to pH,"[1]; buffer pH 7.3, 5 min",100.1
same,assay of esomeprazole and omeprazole according to pH,"[1]; buffer pH 7.3, 10 min",100.1
same,assay of esomeprazole and omeprazole according to pH,"[1]; buffer pH 7.3, 15 min",100.0
same,assay of esomeprazole and omeprazole according to pH,"[1]; buffer pH 7.3, 30 min",100.0
same,assay of esomeprazole and omeprazole according to pH,"[1]; buffer pH 7.3, 45 min",100.0
same,assay of esomeprazole and omeprazole according to pH,"[1]; buffer pH 7.3, 60 min",100.0
same,assay of esomeprazole and omeprazole according to pH,"[1]; buffer pH 7.3, 120 min",99.90
same,assay of esomeprazole and omeprazole according to pH,"[1]; buffer pH 7.5, 5 min",99.4
same,assay of esomeprazole and omeprazole according to pH,"[1]; buffer pH 7.5, 10 min",99.3
same,assay of esomeprazole and omeprazole according to pH,"[1]; buffer pH 7.5, 15 min",99.2
same,assay of esomeprazole and omeprazole according to pH,"[1]; buffer pH 7.5, 30 min",99.1
same,assay of esomeprazole and omeprazole according to pH,"[1]; buffer pH 7.5, 45 min",99.3
same,assay of esomeprazole and omeprazole according to pH,"[1]; buffer pH 7.5, 60 min",99.1
same,assay of esomeprazole and omeprazole according to pH,"[1]; buffer pH 7.5, 120 min",98.2
same,assay of esomeprazole and omeprazole according to pH,"[1]; buffer pH 8.0, 15 min",101.1
same,assay of esomeprazole and omeprazole according to pH,"[1]; buffer pH 8.0, 30 min",100.9
same,assay of esomeprazole and omeprazole according to pH,"[1]; buffer pH 8.0, 45 min",100.7
same,assay of esomeprazole and omeprazole according to pH,"[1]; buffer pH 8.0, 60 min",100.7
same,assay of esomeprazole and omeprazole according to pH,"[1]; buffer pH 8.0, 120 min",100.0
"O=C([O-])O.[Na+] [sodium bi-carbonate, sodium bicarbonate]",dose of sodium bicarbonate that can neutralize 200 mL of simulated gastric juice to show neutral pH,[2]; 200 mL simulated gastric juice,at least 600 mg
same,pH of simulated gastric juice,[2]; sodium bicarbonate 500 mg,5.77
same,pH of simulated gastric juice,[2]; sodium bicarbonate 600 mg,6.51
same,pH of simulated gastric juice,[2]; sodium bicarbonate 700 mg,7.30
same,pH of simulated gastric juice,[2]; sodium bicarbonate 800 mg,7.30
same,pH of simulated gastric juice,[2]; sodium bicarbonate 900 mg,7.31
same,pH of simulated gastric juice,"[2]; sodium bicarbonate 1,000 mg",7.37
same,pH of simulated gastric juice,"[2]; sodium bicarbonate 1,100 mg",7.38
same,pH of simulated gastric juice,"[2]; sodium bicarbonate 1,200 mg",7.38
same,pH of simulated gastric juice,"[2]; sodium bicarbonate 1,300 mg",7.40
